Assay [1] concerns oxazolone-induced DTH. In words: Oxazolone-induced delayed-type hypersensitivity (DTH), ear swelling. The settings on record: oral, 1 hour before oxazolone challenge; compared with the control. Type of assay: in vivo, BALB/c mice. The source says: A delayed-type hypersensitivity (DTH) reaction is an expression of cell-mediated immunity and plays a major role in the pathology and chronicity of many inflammatory disorders. Delayed-type hypersensitivity (DTH) reactions can be induced by various allergens, including oxazolone, 2,4-dinitrofluorobenzene (DNFB) and sheep red blood cells (SRBCs). One of the most characteristic DTH phenomena is contact hypersensitivity, which is characterized by swelling and by increased tissue levels of cytokines. Contact hypersensitivity (CHS) is a T cell-mediated immune reaction in response to cutaneous sensitization and challenge with reactive haptens that are capable of binding directly to soluble and cell-associated proteins and recognized by T cells in the context of self-MHC products. The cells that recognize antigen-protein complex in the skin are the Langerhans cells (LCs). After topically allergen application, Langerhans cells (LCs), the major antigen-presenting cells (APCs) for the induction of immune responses in skin, show enhanced expression of surface MHC class II molecules, and start to emigrate from the skin to regional lymph nodes where specific lymphocyte activation is thought to occur. After a second contact with the hapten, T cells are first recruited into tissues and then activated by antigen-presenting cells to produce cytokines that mediate local inflammation. Myeloperoxidase (MPO) is an enzyme exclusively present in neutrophil granules, which is commonly used as an index of granulocyte infiltration, and its inhibition is indicative of an anti-inflammatory action.
The goal of the present study is to examine the effects of Compounds A, B and C on oxazolone-induced DTH. […]
Ear swelling response was determined by ear thickness measured with a micrometer before and 24 hours after oxazolone challenge and reported as the mean change in ear thickness (ΔT±S.E.M.). Percent suppression of ear swelling response was calculated as % suppression=[1−(ΔT of sensitized mice exposed to experimental treatment/ΔT of sensitized mice exposed to vehicle treatment)]×100. […]

The test system of assay [2] is A375 melanoma cell line. In words: TRANSWELL cell migration of A375 melanoma cells. Type of assay: cell-based. The settings on record: Homo sapiens, A-375, 24 hours, read-out: IC50 of inhibitory effect on cell-migration. As for the experimental part:
The A375 cells were cultured with RPMI and 10% FBS. The cells were starved for 24 hours in medium without FBS. At the end of the starvation, 5×10^4 cells in medium without FBS were placed in the upper chamber of 24-well, TRANSWELL apparatus (Corning TRANSWELL® polycarbonate membrane inserts, 5 μm pore size with solvent (DMSO/PEG400) or different concentrations of Compound A, B, C or D. Medium with FBS and compound A, B, C or D was added to the bottom chamber. Twenty-four hours later the cells from the upper chamber were removed with a cotton swab. Cells that migrated to the lower side of the membrane were stained with Calcein-AM (Sigma) and images were taken with a fluorescence microscope. The number of migrating cells was quantified by Image J software and the IC50 values were calculated using Prism software (Graphpad).

The test system of assay [3] is A375 cells. In words: Viability of A375 cancer cells (WST-1 reagent). Type of assay: cell-based. As to conditions: viability 72 hours post treatment. Here is the method:
A375 cells (CRL-1619, Melanoma cancer cells, American Type Culture Collection (“ATCC”), Manassas Va., USA) were cultured with RPMI and 10% FBS (300 cells per well). Twenty-four hours after seeding the cells were treated with different concentrations of Compound A. Viability of the cells was tested seventy-two hours post treatment using WST-1 reagent (Roche). The LD50s were calculated using Prism software (Graphpad). Compound A killed the A375 cancer cells with LD50 of 20 μM (FIG. 2A).
(Formazan colour is commonly taken as a measure of viable cells.)

Assay [4] has as its system EAE. In words: EAE model for multiple sclerosis, clinical score. Type of assay: in vivo, CSJL/F1 mice. As for the experimental part: The EAE model in CSJL/F1 mice is an established model for multiple sclerosis. Disease is induced in all mice by the injection of the encephalitogenic emulsion (MSCH/CFA, 0.05 ml injected into the left foot-pad of each mouse). Treatment with Compound A at 10 and 20 mg/kg or solvent (5% DMSO, 10% PEG400, 5% Solutol HS15, 5% Tween 80) by intraperitoneal injection, was started from day 1 of the study and administered twice daily in the first 9 days and then once daily until the end of the study. Scoring of EAE clinical signs were initiated from the 10th day post-EAE induction and continued daily. The clinical signs were recorded according to a grading system described in the table 1.

The test system of assay [5] is D122 Lewis lung cancer cells. In words: Formation of lung cancer metastasis, D122 cells injected into tail vein. Type of assay: in vivo, C57BL mice. The settings on record: 20 mg/kg intraperitoneal twice daily for 28 days. Here is the method: Suppressive activity against formation of lung cancer metastasis was tested using D122 Lewis lung cancer cells injected into the tail vein of male C57BL mice. Animals were treated twice daily by intraperitoneal injection of Compound A at 20 mg/kg or solvent (5% DMSO, 10% PEG400, 5% Solutol HS15, 5% Tween 80). Treatment was continued for 28 days. On day 33, animals were sacrificed, lungs were removed and weighed. When the Compound A and vehicle groups are compared, there is about a 50% decrease in added lung weight in the Compound A group (FIG. 3). The average weight gain in the control group was 250 mg while in the Compound A group it was only 125 mg. Analyzing the data using two tailed T test indicate a the data is significant (pValue=0.0085). The effect seen following administration of Compound A, supports the claim that this compound has anti-metastatic activity.

This is an account of results in patent US20110129463A1, “Quinazolin-4(3A)-One Derivatives and Methods of Use Thereof” (Proteologics, Ltd., priority 2009, published 2011).

Structures are written as SMILES.

`O=c1c2ccccc2nc(/C=C/c2ccc(Br)cc2)n1-c1cccc([N+](=O)[O-])c1` [Compound C, (E)-2-(4-bromostyryl)-3-(3-nitrophenyl)quinazolin-4(3H)-one]: the “anti-inflammatory activity in DTH study (FIG. 7)” value (“anti-inflammatory activity” for short) in assay [1] is on record as “same anti-inflammatory activity as the control”. Besides, the IC50 in assay [2] stood at 920 nM.
For the molecule `O=c1c2ccccc2nc(/C=C/c2ccc(O)cc2)n1-c1cccc([N+](=O)[O-])c1` [Compound A, 2-[2-(4-Hydroxyphenyl)-vinyl]-3-(3-nitrophenyl)-4-quinazolone], the “LD50 (killing of A375 cancer cells)” value in assay [3] is 20 µM. In assay [4] (10 mg/kg intraperitoneal), the “effect on EAE clinical signs” value is “No effect”. Besides, the “EAE clinical signs relative to the score for water and vehicle controls” value in assay [4] (20 mg/kg intraperitoneal) is “about half”. Besides, the “average weight gain (added lung weight)” value in assay [5] (day 33, control group 250 mg) stood at 125 mg. In assay [5] (lungs weighed on day 33), the “decrease in added lung weight vs vehicle group” value was roughly 50%. The “anti-inflammatory activity” value in assay [1] was “same anti-inflammatory activity as the control”. Further, in assay [2], the IC50 came out at 100 nM.
For the molecule `COc1ccc(/C=C/c2nc3ccccc3c(=O)n2-c2cccc([N+](=O)[O-])c2)cc1` [Compound B, (E)-2-(4-methoxystyryl)-3-(3-nitrophenyl)quinazolin-4(3H)-one], the “anti-inflammatory activity” value in assay [1] is reported as “same anti-inflammatory activity as the control”. In addition, the IC50 in assay [2] stood at 45 nM.
With `Cn1ccc(/C=C/c2nc3ccccc3c(=O)n2-c2cccc(N(O)O)c2)n1` [Compound D, (E)-3-(3-(dihydroxyamino)phenyl)-2-(2-(1-methyl-1H-pyrazol-3-yl)vinyl)quinazolin-4(3H)-one], the IC50 in assay [2] was found to be 61 nM.
